From patent publication US9872875B2, “Component and method for treating viral disease” (Institut Pasteur of Shanghai, Chinese Academy of Sciences, priority 2012, dated 2018)

What was measured:
Type in all cases: cell-based, Enterovirus 71
[1] = test system: EV71 clinical isolate (EV71 FY 573); assay: EV71 TCID50 (CPE, crystal violet) in RD cells
Procedure: EV71 (clinical isolate EV71 FY 573) in 10-fold serial dilutions was used to infect RD cells at different E02 concentrations. After 3-4 days of incubation, CPE (cytopathic effect) was observed under optical microscope and stained with crystal violet to calculate 50% tissue culture infective dose. Procedures are detailed as follows:
(1) Cell seeding: 24 h prior to infection, RD cells were seeded in 96-well cell culture plates, 5×10^4 cells per well.
(2) Infection: • a. Virus pre-incubated with drug: virus stock solution was in 10-fold serial dilution with DMEM and dispensed to 96-well plates at 100 μl per well, and 11 μl of E02 dissolved in DMEM at corresponding concentration was added, and incubated at 37° C. for 1 h; • b. Cells pre-incubated with drug: cell culture medium was removed from 96-well plates, each well was added 100 μl DMEM, then added 11 μl of E02 solution at corresponding concentration, and incubated at 37° C. for 1 h; • c. After 1 h incubation, drug was discarded from cell culture plates, 111 μl of virus pre-incubated with drug was transferred to cell culture plates, and incubated at 37° C. for 1 h; • d. […]
(3) After cultured for 3-4 days, CPE was observed under optical microscope, and stained with crystal violet, TCID50 was calculated using Reed-Muench method.

[2] = test system: EV71 M.A.V. (mouse-adapted strain); assay: EV71 M.A.V. TCID50 in RD cells
Source text: EV71 M.A.V. in 10-fold serial dilutions was used to infect RD cells at different E02 concentrations. After cultured for 3-4 days, CPE was observed under optical microscope, and stained with crystal violet, to calculate 50% tissue culture infective dose. Specific steps are similar to that for testing corresponding TCID50 of Example 1.

[3] = test system: EV71 M.A.V. (mouse-adapted strain); assay: EV71 M.A.V. PFU in RD cells; settings: Enterovirus A, read-out: EC50 to reduce EV71 M.A.V. PFU in RD cells
Procedure: EV71 M.A.V. was used to infect RD cells cultured in 12-well plates at different E02 concentrations. After cultured for 5 to 7 days, stained and plaque-forming units were calculated. Detailed procedures were the same as the corresponding PFU testing method of Example 1.

[4] = test system: EV71 clinical isolate SH-TS; assay: EV71 SH-TS replication in RD cells, quantitative RT-PCR; settings: MOI 0.1, 46 h
Procedure: RD cells were infected with EV71 SH-TS or SH-RS at different E02 concentrations, at the MOI of 0.1. After cultured for 46 h, viral RNA in culture supernatant was extracted. Relative EV71 viral load was determined by quantitative RT-PCR. See Example 1 for specific procedures of quantitative RT-PCR.

[5] = test system: EV71 clinical isolate SH-RS; assay: EV71 SH-RS PFU in RD cells; settings: Enterovirus A, 168 h, 5~7 days, read-out: EC50 to reduce EV71 SH-RS PFU in RD cells
Procedure: RD cells cultured in 12-well plates were infected with EV71 SH-TS or SH-RS at different E02 concentrations. After cultured for 5˜7 days, cells were stained and plaque-forming units were calculated. Same procedure is as detailed in “3. E02 reduces EV71 plaque forming units in RD cells” of Example 1.

[6] = test system: EV71 clinical isolate EV71 FY573; assay: Time of E02 addition assay, EV71 in RD cells; settings: 32 μM of E02, MOI 10, 18 h
Procedure: RD cells in 96-well plates were infected with MOI 10 EV71 clinical isolate EV71 FY573. In three periods at prior to, during, and post infection, 32 μM of E02 (dissolved in DMEM) or DMEM were added, EV71 replication was measured to determine the stage, in which E02 inhibits EV71 infection. Steps are detailed as follows:
(1) Cell seeding: 24 h prior to infection, RD cells were seeded in 96-well cell culture plates, 5×10^4 cells per well;
(2) Cells pre-incubated with drug: cell culture medium was removed from 96-well plates, each well was added 100 μl of DMEM, and then added 11 μl of 320 μM E02 solution (cell group treated with drug) or 11 μl of DMEM (cell group without drug treatment), incubated at 37° C. for 1 h.
(3) Virus pre-incubated with drug: virus stock solution was diluted to 5×10^6 TCID50/ml with DMEM, dispensed to 96-well plates at 100 μl per well, and 11 μl of 320 μM E02 solution (B and C groups) or 11 μl of DMEM (A and F groups) were added, and incubated at 37° C. for 1 h.
(4) Infection: After cells and virus were incubated for one hour, drug was discarded from cell culture plates. 111 μl of pre-incubated virus with drug (B and C groups) or DMEM (A and F groups) was transferred to cell culture plates. After 100 μl of virus solution was transferred to D and E groups, 11 μl of 320 μM E02 was added, and incubated at 37° C. for 1 h.
(5) One hour after viral infection of cells, virus and drug mixture was discarded from cell culture plates. Cells were washed twice with 50 μl of DMEM. 180 μl per well of DMEM containing 2% FBS, 20 μl of 320 μM E02 solution (B, E, and F groups) or 20 μl of DMEM (A, C, and D groups) were added. […]
(7) Viral load determination: EV71 5′UTR gene was detected using ABI Taqman one-step RT-PCR kit (ABI taqMan® One-Step RT-PCR, Cat #4309169) in ABI 7900HT 384-well plates PCR system. […]
(8) PCR standard curves were used to convert CT values of PCR to viral load (standard curves were obtained by CT values determined by performing RT-PCR on RNA extracted from viruses with defined titers at 10-fold serial dilutions). […]

Cc1ccc(C(=O)Nc2ccc(S(=O)(=O)O)c3cc(S(=O)(=O)O)cc(S(=O)(=O)O)c23)cc1NC(=O)c1cccc(NC(=O)Nc2cccc(C(=O)Nc3cc(C(=O)Nc4ccc(S(=O)(=O)O)c5cc(S(=O)(=O)O)cc(S(=O)(=O)O)c45)ccc3C)c2)c1 [E02, Suramin Sodium]
inhibition of EV71 clinical isolate infection of RD cells ([1]; 10 μM of E02): completely inhibit
EC50 ([1]; Enterovirus A, RD, EV71 FY 573, 3-4 days, read-out: EC50 to reduce EV71 TCID50 in RD cells): 4.7 µM
inhibition of EV71 mouse adapted strain infection of RD cells ([2]; 10 μM of E02): completely inhibit
EC50 ([2]; Enterovirus A, EV71, RD, read-out: EC50 to reduce EV71 M.A.V. TCID50 in RD cells): 8.07 µM
EC50 [3]: 2 µM
concentration reducing EV71 replication by 10-fold [4]: 7.14 μM
concentration reducing EV71 replication by 100-fold [4]: 25.35 µM
EC50 [5]: 3.47 µM
inhibition of EV71 infection, E02 added after infection (F) [6]: could not inhibit EV71 infection
inhibition of EV71 infection, E02 added during infection (D, E) [6]: can inhibit EV71 infection
inhibition of EV71 infection, E02 added prior to infection (B, C) [6]: can inhibit EV71 infection
